From patent US12692241B2, “Substituted triazine compound” (Nico Therapeutics, Inc., priority 2021, dated 2026)

Key:
[1] = tested on: IL-1β production in THP-1 cells (LPS and ATP; NLRP3 inflammasome activation); test: THP-1 IL-1β production inhibitory test; type: cell-based, human; settings: Homo sapiens, THP-1, 2 h, PMA-differentiated THP-1 cells, LPS 50 ng/mL and ATP 5 mM, 2 hours, ELISA; read-out: IC50 (nM), IL-1β production
In short: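 THP-1 cells were differentiated with 50 ng/mL PMA for 2 days, then held 15 min at 37 °C. Cells were stimulated with 50 ng/mL LPS plus 5 mM ATP for 2 h, and supernatant IL-1β was measured by ELISA. IC50 came from sigmoidal Emax nonlinear regression.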

[2] = tested on: IL-1β p17 in cerebrospinal fluid; test: Rat central nervous system IL-1β production test; type: in vivo; settings: male Wistar rats, oral, LPS and BzATP in cisterna magna
Procedure: Rat Central Nervous System IL-1β Production Test
Male Wistar rats of 10-14 weeks old were administered with 12.5 μg/5 μL LPS (SIGMA, L2880) in the cisterna magna under isoflurane anesthesia. Two hours later, a test compound was orally administered. Further one hour later, 50 μg/5 μL BzATP (2′(3′)—O-(4-benzoylbenzoyl)adenosine 5′-triphosphate triethylammonium salt, SIGMA, B6396) was administered in the cisterna magna. Thirty minutes later, the cerebrospinal fluid was collected. The cerebrospinal fluid was subjected to Western blotting using an anti-IL-1β antibody (Millipore, AB1832P) to measure IL-1β p17, and then, the suppression rate thereof relative to the solvent-administered group was calculated.
In the Table, Dose refers to a dosage amount of each test compound, and Ex59, Ex75, Ex131, Ex132 and Ex164 represent Example 59, Example 75, Example 131, Example 132 and Example 164, respectively. It was confirmed that the compounds have inhibitory effects on IL-1β production.

SMILES: Cc1nc(N[C@@H]2CCCC[C@@]2(C)O)nnc1-c1ccc(Cl)cc1O [Example 54]
- IC50 [1]: 7.3 nM

SMILES: Cc1nc(N[C@@H]2CCCC[C@@H]2O)nnc1-c1ccc(C(F)(F)F)cc1O [Example 40]
- IC50 [1]: 22 nM

SMILES: Cc1nc(NCC2(N)CCOCC2)nnc1-c1ccc(C(F)(F)F)cc1O [Example 171]
- IC50 [1]: 240 nM

SMILES: Cc1nc(NC2(CCO)CC2)nnc1-c1ccc(C(F)(F)F)cc1O [Example 34]
- IC50 [1]: 49 nM

SMILES: Cc1nc(NCc2cccnn2)nnc1-c1ccc(C(F)(F)F)cc1O [Example 28]
- IC50 [1]: 630 nM

SMILES: Oc1cc(C(F)(F)F)ccc1-c1nnc(N[C@@H]2CCCC[C@H]2O)nc1C(F)F [Example 118]
- IC50 [1]: 47 nM

SMILES: Cc1ccc(-c2nnc(N[C@@H]3CCCC[C@H]3N)nc2C)c(O)c1 [Example 147]
- IC50 [1]: 28 nM

SMILES: Oc1cc(Cl)ccc1-c1nnc(N[C@@H]2CCOC[C@H]2O)nc1C1CC1 [Example 113]
- IC50 [1]: 37 nM

SMILES: Cc1nc(NCCN2CCOCC2)nnc1-c1ccc(C(F)(F)F)cc1O [Example 95]
- IC50 [1]: 410 nM

SMILES: Cc1nc(Nc2ccn(C)n2)nnc1-c1ccc(C(F)(F)F)cc1O [Example 97]
- IC50 [1]: 150 nM

SMILES: Cc1nc(Nc2cc[nH]n2)nnc1-c1ccc(C(F)(F)F)cc1O [Example 150]
- IC50 [1]: 6.8 nM

SMILES: Cc1nc(N[C@@H]2CCC[C@H](O)C2)nnc1-c1ccc(C(F)(F)F)cc1O [Ex75]
- suppression rate of IL-1β p17 relative to the solvent-administered group ([2]; Dose 0.3 mg/kg): 12%
- suppression rate of IL-1β p17 relative to the solvent-administered group ([2]; Dose 1 mg/kg): 73%
- suppression rate of IL-1β p17 relative to the solvent-administered group ([2]; Dose 3 mg/kg): 100%

SMILES: Cc1nc(N[C@H]2CCC[C@@H](O)C2)nnc1-c1ccc(C(F)(F)F)cc1O [Example 167]
- IC50 [1]: 580 nM

SMILES: Cc1nc(N[C@@H]2CCCC(F)(F)[C@H]2O)nnc1-c1ccc(C(F)(F)F)cc1O [Example 48]
- IC50 [1]: 34 nM

SMILES: Cc1nc(N[C@@H]2CCCN(C3CNC3)C2)nnc1-c1ccc(C(F)(F)F)cc1O [Example 172]
- IC50 [1]: 35 nM

SMILES: Cc1nc(N[C@H]2C[C@H](CO)C2)nnc1-c1ccc(C(F)(F)F)cc1O [Example 99]
- IC50 [1]: 9.4 nM

SMILES: Cc1nc(Nc2ccn(C[C@@H](C)O)n2)nnc1-c1ccc(C(F)(F)F)cc1O [Example 107]
- IC50 [1]: 25 nM

SMILES: Cc1nc(N[C@H]2CCCNC2=O)nnc1-c1ccc(C(F)(F)F)cc1O [Example 45]
- IC50 [1]: 24 nM

SMILES: C[C@@H](O)CNc1nnc(-c2ccc(C(F)(F)F)cc2O)c(C(F)(F)F)n1 [Example 130]
- IC50 [1]: 260 nM

SMILES: Cc1nc(N[C@H]2CCCC[C@@H]2O)nnc1-c1ccc(C(F)(F)F)cc1O [Example 41]
- IC50 [1]: 310 nM

SMILES: Cc1nc(N[C@H]2CCNC2=O)nnc1-c1ccc(C(F)(F)F)cc1O [Example 44]
- IC50 [1]: 7 nM

SMILES: Cc1nc(N[C@@H]2CC[C@H](O)C2)nnc1-c1ccc(C(F)(F)F)cc1O [Example 35]
- IC50 [1]: 50 nM

SMILES: Cc1nc(NC(C)(C)CO)nnc1-c1ccc(C(F)(F)F)cc1O [Example 33]
- IC50 [1]: 150 nM

SMILES: Cc1nc(NCc2cc[nH]n2)nnc1-c1ccc(C(F)(F)F)cc1O [Example 94]
- IC50 [1]: 70 nM

SMILES: Cc1nc(N[C@@H]2CCC[C@H](O)C2)nnc1-c1ccc(C2CC2)cc1O [Example 83]
- IC50 [1]: 32 nM

SMILES: Cc1nc(N[C@H]2CNC(=O)C2)nnc1-c1ccc(C(F)(F)F)cc1O [Example 66]
- IC50 [1]: 150 nM

SMILES: COc1ccc(-c2nnc(N[C@@H]3CCCC[C@H]3O)nc2C)c(O)c1 [Ex59]
- suppression rate of IL-1β p17 relative to the solvent-administered group ([2]; Dose 0.3 mg/kg): 45%
- suppression rate of IL-1β p17 relative to the solvent-administered group ([2]; Dose 1 mg/kg): 54%
- suppression rate of IL-1β p17 relative to the solvent-administered group ([2]; Dose 3 mg/kg): 85%
